Experimental data from US20140205681A1, “HYDROGEN-BOND SURROGATE PEPTIDES AND PEPTIDOMIMETICS FOR p53 REACTIVATION” (New York University, priority 2013, published 2014).
Ends that are not written are not given here. * marks the point of attachment. A∗ = N-allylalanine, C=CCN[C@@H](C)C(=O)*; code X = not defined here

Key:
UMSCC47 cells [1] = experiment: Clonogenic survival (crystal violet); assay type: cell-based, human; settings: UMSCC47 cells, 10 μM each agent, 14 days, vs vehicle
Procedure: (§1) Cell proliferation was assessed using the MTT reagent (Roche Molecular Biochemicals, Nutley, N.J.) to detect metabolic active cells. Absorbance was measured at 570 nm in the Spectra Max 190 ELISA reader (Molecular Devices, Sunnyvale, Calif.) after overnight incubation. For clonogenic survival, 200 cells per well were plated in complete growth media and allowed to grow until visible colonies were formed (14 days). Cell colonies were fixed with cold methanol, stained with 0.25% crystal violet in 25% methanol, washed, and air dried. For apoptosis, cells were harvested, washed with cold PBS, and co-stained with Annexin V and propidium iodide according to the manufacturer's protocol (ApoAlert Annexin V-FITC Apoptosis Kit; Clontech). Apoptotic cells were analyzed using BD FACS Calibur (BD Biosciences Corporation, Franklin Lakes, N.J.) at The Ohio State University Comprehensive Cancer Center Analytical Cytometry Core.

[2] = system: IMR90 (human normal fibroblasts); experiment: Cell proliferation (MTT); assay type: cell-based; settings: for effect on efficacy of cis-platinum on proliferation: IMR90 fibroblasts, 10 μM with cis-platinum 10 μM; for cell proliferation, single-agent: human normal IMR90 fibroblasts, 10 μM
Procedure: as §1

HPV16 E6-p300 = target: T1, HPV16 E6-p300 (Homo sapiens, UniProt Q09472); experiment: Immunoprecipitation of HPV16 E6-p300 association; assay type: cell-based; settings: UMSCC47 cells, 10 μM, 24 hours
T1 construct: Cell lysates were extracted, immunoprecipitated with anti-p300 antibody, and immunoblotted with anti-E6 antibody; endogenous in cells; host or cells: UMSCC47 (HPV16-positive HNSCC)
Procedure: Cells were lysed with NP buffer [50 mM Tris (pH 8.0), 150 mM NaCl, 0.5% deoxycholate, 0.1% SDS, and 1.0% NP-40] containing 1× Protease Inhibitor Cocktail (Roche, Switzerland) at 4° C. with gentle rocking for 15 min. The supernatant was pre-cleared to block nonspecific binding with 50 μL protein A/G Agarose beads (Pierce Biotechnology) that had been pre-washed with NP buffer before use. Equal amounts of anti-E6 antibody (Abcam), anti-p300 antibody (Millipore), or IgG antibody (Cell Signaling) were added to the respective samples. After 4 hours incubation at 4° C., 50 μL pre-washed protein A/G-agarose beads were added to each tube and immunoprecipitation was performed by rocking overnight at 4° C. The immunoprecipitated complexes were washed with NP buffer and then eluted using 2×SDS sample buffer. Eluted sample and 10% of input were resolved by SDS-PAGE for Western blot analysis with anti-E6, anti-p300, or anti-V5 antibodies.

UMSCC47 cells [3] = experiment: Tumorsphere formation; assay type: cell-based, human; settings: UMSCC47 cells, 10 μM, 7 days, vs vehicle
Procedure: Cells were harvested and seeded in a serum-free defined medium consisting of KSF medium supplemented with epidermal growth factor, basic fibroblast growth factor, insulin, and hydrocortisone in low-attachment plates (Corning Incorporated, Corning, N.Y.) for tumorspheres. Tumorsphere formation efficiency was calculated as the number of tumorspheres ([…] in diameter) formed in 7 days divided by the original number of cells seeded. Tumorsphere diameter was measured using NIS-Elements software.

p53 [4] = experiment: p53 transcriptional activity (Cignal p53 Firefly/Renilla luciferase reporter); assay type: cell-based, human; settings: 24 hours; for p53 activity, increase: HPV-positive UMSCC47 cells, vs vehicle; for p53 activity, increase / p53 activity: 10 μM; for p53 activity: UMSCC74A (HPV-negative, p53 wildtype)
Procedure: Cells were transfected with 100 ng of Cignal p53 reporter (SABiosciences, Valencia, Calif.) using Lipofectamine 2000. Cignal p53 reporter contains tandem repeats of the p53 consensus transcriptional response element. After 48 hours, cells were washed with cold PBS, lysed in passive lysis buffer (Promega), and measured for Firefly/Renilla dual luciferase activities in a luminometer using the Dual-Light System (Applied Biosystems, Foster City, Calif.). […] to control for transfection efficiency. A modification to the protocol was used for compound treatment. UMSCC47 cells were transfected with 100 ng of Cignal p53 reporter. After 24 hours, cells were treated with vehicle, CH1iB (10 μM), cis-platinum (10 μM), or combination of CH1iB (10 μM) and cis-platinum (10 μM) and measured for Firefly/Renilla dual luciferase activities 24 hours post-treatment.

[5] = system: p300, p53, p21, miR-34a, miR-200c; experiment: Quantitative real-time PCR of p300, p53, p21, miR-34a and miR-200c expression; assay type: cell-based, human; settings: 10 μM, 24 hours; for expression of p300, p53, and p53-regulated genes: UMSCC74A
Procedure: Cells were extracted for total RNA using the TRIzol® reagent (Invitrogen) or TaqMan PreAmp Cells-to-CT kit (Applied Biosystems). Expression of p300, p53, p21, miR-34a and miR-200c were determined using the Applied Biosystems 7900HT Fast Real-Time PCR System with validated TaqMan gene expression assays (Applied Biosystems). p53, p300, and p21 expression were normalized to GADPH and miR-34a and miR-200c expression were normalized to RNU44 using the ΔΔCt method.

UMSCC47 cells [6] = experiment: Apoptosis (Annexin V FACS); assay type: cell-based, human; settings: 10 μM, 24 hours, vs vehicle
Procedure: as §1

p53 [7] = experiment: Western blot of total and acetylated[K382] p53 levels; assay type: cell-based, human; settings: 24 hours; for acetylated p53 levels / p53 accumulation / p53 levels: 10 μM; for p53 levels: UMSCC74A
Procedure: Whole cell lysates were mixed with Laemmli loading buffer, boiled, separated by SDS-PAGE, and transferred to a nitrocellulose membrane. Subsequently, immunoblot analyses were performed using antibodies specific to V5 (Invitrogen), p53 (sc-126, Santa Cruz Biotechnology, Santa Cruz, Calif.), or acetylated[[…]]-p53 (2525, Cell Signaling Technology). The signal was developed using the SuperSignal Western Blotting Kit (Pierce, Rockford, Ill.).

UMSCC47 cells [8] = experiment: Cell proliferation (MTT); assay type: cell-based, human; settings: UMSCC47 cells; for cell proliferation, single-agent: 10 μM, 24-72 hours
Procedure: as §1

UMSCC74A cells = experiment: Cell proliferation (MTT); assay type: cell-based, human; settings: for cell proliferation, single-agent: HPV-negative UMSCC74A cells, 10 μM; for effect on efficacy of cis-platinum on proliferation: UMSCC74A cells, 10 μM with cis-platinum 10 μM
Procedure: as §1

CH1 domain of p300 = CH1 domain of p300 (Homo sapiens, UniProt Q09472); settings: competes with endogenous HIF-1α for p300; Henchey et al. 2010; cited from earlier work
[9] = UMSCC47 cells, 10 μM with cis-platinum 10 μM

Chain of CH1 domain of p300 (Q09472 whole entry, the tested form may be a part): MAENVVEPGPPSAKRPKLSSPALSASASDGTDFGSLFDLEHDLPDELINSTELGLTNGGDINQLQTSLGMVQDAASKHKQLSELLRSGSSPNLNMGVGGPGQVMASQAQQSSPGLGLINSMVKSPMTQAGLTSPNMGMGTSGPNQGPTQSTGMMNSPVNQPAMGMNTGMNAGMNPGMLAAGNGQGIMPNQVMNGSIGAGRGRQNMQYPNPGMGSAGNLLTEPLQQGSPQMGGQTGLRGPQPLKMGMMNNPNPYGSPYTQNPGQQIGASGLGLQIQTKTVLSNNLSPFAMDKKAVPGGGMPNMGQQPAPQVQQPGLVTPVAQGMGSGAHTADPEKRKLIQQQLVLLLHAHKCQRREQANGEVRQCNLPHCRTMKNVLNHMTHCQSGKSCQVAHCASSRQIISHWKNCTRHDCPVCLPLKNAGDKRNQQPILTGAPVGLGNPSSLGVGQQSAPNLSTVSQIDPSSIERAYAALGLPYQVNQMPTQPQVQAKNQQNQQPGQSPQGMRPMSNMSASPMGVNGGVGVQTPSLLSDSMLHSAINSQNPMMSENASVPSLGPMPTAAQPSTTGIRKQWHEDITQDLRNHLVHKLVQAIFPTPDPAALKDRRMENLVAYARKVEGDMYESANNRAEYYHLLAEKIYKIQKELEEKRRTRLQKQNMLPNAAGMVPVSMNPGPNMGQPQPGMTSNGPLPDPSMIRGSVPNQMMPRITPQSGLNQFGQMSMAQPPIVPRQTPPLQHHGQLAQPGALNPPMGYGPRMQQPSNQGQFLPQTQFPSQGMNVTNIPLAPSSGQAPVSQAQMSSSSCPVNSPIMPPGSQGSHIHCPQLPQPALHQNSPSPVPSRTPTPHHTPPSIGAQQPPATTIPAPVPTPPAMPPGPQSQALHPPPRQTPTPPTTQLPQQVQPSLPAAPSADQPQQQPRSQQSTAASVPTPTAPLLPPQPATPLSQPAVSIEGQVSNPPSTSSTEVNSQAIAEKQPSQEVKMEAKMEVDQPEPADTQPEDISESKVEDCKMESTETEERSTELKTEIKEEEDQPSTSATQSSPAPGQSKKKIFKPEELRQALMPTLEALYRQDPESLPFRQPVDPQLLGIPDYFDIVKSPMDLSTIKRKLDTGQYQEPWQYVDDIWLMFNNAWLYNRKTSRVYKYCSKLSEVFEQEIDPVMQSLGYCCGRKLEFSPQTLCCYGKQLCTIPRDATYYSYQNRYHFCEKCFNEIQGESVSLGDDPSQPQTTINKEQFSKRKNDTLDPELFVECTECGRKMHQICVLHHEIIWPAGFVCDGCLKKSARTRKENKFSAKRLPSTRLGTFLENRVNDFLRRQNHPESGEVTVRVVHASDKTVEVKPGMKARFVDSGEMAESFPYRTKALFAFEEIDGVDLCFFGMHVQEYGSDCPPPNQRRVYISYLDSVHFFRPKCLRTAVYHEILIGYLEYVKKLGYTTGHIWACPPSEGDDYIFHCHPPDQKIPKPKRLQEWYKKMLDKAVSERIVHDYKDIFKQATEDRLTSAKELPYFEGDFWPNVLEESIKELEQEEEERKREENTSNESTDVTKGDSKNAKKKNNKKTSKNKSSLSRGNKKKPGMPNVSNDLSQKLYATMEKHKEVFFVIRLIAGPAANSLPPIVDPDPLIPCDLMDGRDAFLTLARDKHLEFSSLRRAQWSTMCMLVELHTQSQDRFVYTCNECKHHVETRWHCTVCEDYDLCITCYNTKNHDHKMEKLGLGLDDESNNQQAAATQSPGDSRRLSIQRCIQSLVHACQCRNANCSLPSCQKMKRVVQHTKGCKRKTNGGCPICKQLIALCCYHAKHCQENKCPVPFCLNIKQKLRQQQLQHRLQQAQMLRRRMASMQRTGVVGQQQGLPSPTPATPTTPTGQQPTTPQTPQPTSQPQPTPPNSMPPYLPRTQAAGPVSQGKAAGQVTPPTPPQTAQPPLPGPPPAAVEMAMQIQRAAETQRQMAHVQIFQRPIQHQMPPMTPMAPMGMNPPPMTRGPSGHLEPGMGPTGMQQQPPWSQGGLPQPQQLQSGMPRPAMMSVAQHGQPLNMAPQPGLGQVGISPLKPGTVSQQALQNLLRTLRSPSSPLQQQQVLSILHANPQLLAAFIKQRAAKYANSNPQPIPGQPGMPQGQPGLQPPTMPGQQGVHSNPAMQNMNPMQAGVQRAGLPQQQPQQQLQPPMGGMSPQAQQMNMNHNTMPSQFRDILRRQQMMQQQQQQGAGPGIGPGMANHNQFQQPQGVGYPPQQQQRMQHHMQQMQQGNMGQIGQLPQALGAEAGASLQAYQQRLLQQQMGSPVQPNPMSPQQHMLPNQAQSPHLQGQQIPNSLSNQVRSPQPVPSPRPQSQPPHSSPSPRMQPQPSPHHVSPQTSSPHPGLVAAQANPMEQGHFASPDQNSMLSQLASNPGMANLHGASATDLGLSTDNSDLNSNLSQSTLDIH
T1 sequence (Q09472 whole entry): as the sequence (Q09472 whole entry, the tested form may be a part) above

## XELA*RALDQ-NH2 [CH1iB]
UMSCC47 cells [1]
  clonogenic survival, reduction/inhibition: 35%
[2]
  effect on efficacy of cis-platinum on proliferation: did not augment
  cell proliferation, single-agent: no effect
HPV16 E6-p300
  association between E6 and p300: reduced
UMSCC47 cells [3]
  tumorsphere formation, reduced by: 20%
p53 [4]
  p53 activity, increase: 71%
  p53 activity: did not modulate
p53 [4]; [9]
  effect of cis-platinum on p53 activity: potentiated
[5]; UMSCC47 cells
  p21, miR-34a, and miR-200c expression: modest but significant increase
[5]
  expression of p300, p53, and p53-regulated genes: unchanged
UMSCC47 cells [6]
  apoptosis, enhanced by: 353%
p53 [7]; [9]
  effect of cis-platinum on p53 accumulation and acetylation: potentiated
p53 [7]; UMSCC47 cells
  acetylated p53 levels: enhanced
  p53 accumulation: enhanced
p53 [7]
  p53 levels: did not modulate
UMSCC47 cells [8]; 10 μM with cis-platinum 10 μM
  effect on anti-proliferative efficacy of cis-platinum: potentiated
UMSCC47 cells [8]
  cell proliferation, single-agent: inhibited the proliferation
UMSCC74A cells
  cell proliferation, single-agent: no effect
  effect on efficacy of cis-platinum on proliferation: did not augment

## XTAA*DCEYNAR ({code X-Thr-Ala-A∗}-DCEYNAR; staple (positions not given here); reading uncertain; also: HBS: 4-pentenoic acid, N-allylalanine, printed as XTAA*DCEYNAR) [CH1iA, hydrogen bond surrogate stabilized α-helical mimic of HIF-1α targeting site A of p300 CH1; X = 4-pentenoic acid, A* = N-allylalanine, reference compound]
[2]
  effect on efficacy of cis-platinum on proliferation: did not augment
  cell proliferation, single-agent: no effect
p53 [4]
  p53 activity, increase: no effect
  p53 activity: did not modulate
CH1 domain of p300
  HIF-1α-mediated transcription of vascular endothelial growth factor: reduction
[5]
  expression of p300, p53, and p53-regulated genes: unchanged
p53 [7]; UMSCC47 cells
  acetylated p53 levels: no effect
  p53 accumulation: no effect
p53 [7]
  p53 levels: did not modulate
UMSCC47 cells [8]
  cell proliferation, single-agent: inactive
UMSCC74A cells
  cell proliferation, single-agent: no effect
  effect on efficacy of cis-platinum on proliferation: did not augment
